Source: publication PMC6272913, “Synthesis of Bioactive 2-(Arylamino)thiazolo[5,4-f]-quinazolin-9-ones via the Hügershoff Reaction or Cu- Catalyzed Intramolecular C-S Bond Formation” (Molecules, 2016)
Several values for one entry are separate records, joined by “and”; a condition that tells them apart may be missing. Equal values may be shown once. Read-outs that look alike come from different tables or passages of the source.

Assays:
CLK1 = CLK1 (Homo sapiens, UniProt P49759); assay: CLK1 in vitro kinase assay (RS peptide); type: biochemical; conditions: 15 μM ATP, 30 min at 30 °C, triplicate; >10 = less than 50% inhibition at 10 µM
CK1δ/ε = CK1δ/ε in vitro kinase assay (CK1-specific peptide substrate); type: biochemical, Porcine; conditions: 15 μM ATP, 30 min at 30 °C, triplicate; >10 = less than 50% inhibition at 10 µM
DYRK1A = DYRK1A (Rattus norvegicus, UniProt Q63470); assay: DYRK1A in vitro kinase assay (Woodtide); type: biochemical; conditions: 15 μM ATP, 30 min at 30 °C, triplicate; >10 = less than 50% inhibition at 10 µM
CDK5/p25 = target: T1, CDK5/p25 (Homo sapiens, UniProt Q00535); assay: CDK5/p25 in vitro kinase assay (histone H1, [γ-33P] ATP); type: biochemical
T1 construct: made in house

GSK-3α/β = GSK-3α/β in vitro kinase assay (GS-1 peptide); type: biochemical, Porcine; conditions: 15 μM ATP, 30 min at 30 °C, triplicate; >10 = less than 50% inhibition at 10 µM
[1] = 15 μM ATP, 30 min at 30 °C, triplicate, >10 = less than 50% inhibition at 10 µM

T1 sequence (Q00535 whole entry): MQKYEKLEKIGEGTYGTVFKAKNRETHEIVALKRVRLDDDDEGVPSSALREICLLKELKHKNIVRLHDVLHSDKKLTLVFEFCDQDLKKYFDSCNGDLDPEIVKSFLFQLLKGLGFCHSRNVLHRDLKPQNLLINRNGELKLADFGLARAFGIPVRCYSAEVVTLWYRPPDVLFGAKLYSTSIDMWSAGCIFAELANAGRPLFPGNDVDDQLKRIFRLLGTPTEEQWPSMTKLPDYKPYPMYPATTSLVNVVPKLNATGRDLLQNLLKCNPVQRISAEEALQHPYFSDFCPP
T1 sequence (Q15078 99-307 partner limits assumed): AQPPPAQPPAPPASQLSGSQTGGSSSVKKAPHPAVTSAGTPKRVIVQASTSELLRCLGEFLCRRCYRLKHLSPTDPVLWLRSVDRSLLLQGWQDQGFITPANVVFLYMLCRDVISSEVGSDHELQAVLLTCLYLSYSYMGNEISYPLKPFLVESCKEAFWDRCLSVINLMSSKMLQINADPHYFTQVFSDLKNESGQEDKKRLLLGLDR
Chain of CLK1 (P49759 whole entry): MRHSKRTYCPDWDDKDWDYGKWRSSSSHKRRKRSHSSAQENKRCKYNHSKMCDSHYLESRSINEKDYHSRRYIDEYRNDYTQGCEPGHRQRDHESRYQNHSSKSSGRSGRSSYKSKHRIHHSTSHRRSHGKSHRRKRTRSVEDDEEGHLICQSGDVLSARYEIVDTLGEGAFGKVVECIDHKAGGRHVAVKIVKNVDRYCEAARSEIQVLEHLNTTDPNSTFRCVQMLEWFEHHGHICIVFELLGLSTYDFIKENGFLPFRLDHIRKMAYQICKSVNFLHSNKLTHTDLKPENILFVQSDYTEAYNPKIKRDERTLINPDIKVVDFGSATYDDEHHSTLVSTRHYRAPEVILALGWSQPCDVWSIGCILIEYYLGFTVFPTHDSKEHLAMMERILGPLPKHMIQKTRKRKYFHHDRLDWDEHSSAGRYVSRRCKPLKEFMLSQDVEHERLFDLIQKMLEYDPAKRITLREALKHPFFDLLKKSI

| Compound | IC50 (CLK1) | IC50 (CK1δ/ε) | IC50 (DYRK1A) | IC50 (CDK5/p25) | IC50 (GSK-3α/β) | IC50 (CDK5/p25; [1]) |
| --- | --- | --- | --- | --- | --- | --- |
| CN(C)CCNc1nc2ccc3ncn(C4CC4)c(=O)c3c2s1 [Compound 14b, 8-Cyclopropyl-2-([2-(dimethylamino)ethyl]amino)thiazolo[5,4-f]quinazolin-9(8H)-one] | > 10 µM | > 10 µM | > 10 µM | > 10 µM | ≥ 10 µM | – |
| COc1cc2nc(Nc3ccc4ncn(C5CC5)c(=O)c4c3)sc2cc1OC [Compound 10l, 3-Cyclopropyl-6-((5,6-dimethoxybenzo[d]thiazol-2-yl)amino)quinazolin-4(3H)-one] | > 10 µM | > 10 µM | > 10 µM | > 10 µM | ≥ 10 µM | – |
| O=c1c2c(ccc3nc(NCCN4CCOCC4)sc32)ncn1C1CC1 [Compound 14d, 8-Cyclopropyl-2-[(2-morpholinoethyl)amino]thiazolo[5,4-f]quinazolin-9(8H)-one] | 8.1 µM | > 10 µM | 8.2 µM | > 10 µM | ≥ 10 µM | – |
| N/C(=N\CCN1CCOCC1)c1nc2ccc3ncn(C4CC4)c(=O)c3c2s1 [Compound 17c, (Z)-8-Cyclopropyl-N′-(2-morpholinoethyl)-9-oxo-8,9-dihydrothiazolo[5,4-f]quinazoline-2-carboximidamide] | 2.3 µM | > 10 µM | 3.2 µM | > 10 µM | 2.8 µM | – |
| N=C(c1nc2ccc3ncn(C4CC4)c(=O)c3c2s1)N1CCCCC1 [Compound 17f, 8-Cyclopropyl-2-[imino(piperidin-1-yl)methyl]thiazolo[5,4-f]quinazolin-9(8H)-one] | 0.61 µM | > 10 µM | 0.82 µM | – | 0.49 µM | > 10 µM |
| O=c1c2c(ccc3nc(Nc4ccccc4)sc32)ncn1C1CC1 [Compound 8a, 8-Cyclopropyl-2-(phenylamino)thiazolo[5,4-f]quinazolin-9(8H)-one] | 3.4 µM | > 10 µM | > 10 µM | > 10 µM | ≥ 10 µM | – |
| O=c1c2c(ccc3nc(NCc4ccccc4)sc32)ncn1C1CC1 [Compound 14a, 2-(Benzylamino)-8-cyclopropylthiazolo[5,4-f]quinazolin-9(8H)-one] | 3.4 µM | > 10 µM | > 10 µM | > 10 µM | > 10 µM | – |
| 8-Cyclopropyl-2-(piperidin-1-yl)thiazolo[5,4-f]quinazolin-9(8H)-one [Compound 14f] | > 10 µM | > 10 µM | > 10 µM | – | ≥ 10 µM | > 10 µM |
| CN(C)c1ccc(Nc2nc3ccc4ncn(C5CC5)c(=O)c4c3s2)cc1 [Compound 8j, 8-Cyclopropyl-2-([4-(dimethylamino)phenyl]amino)thiazolo[5,4-f]quinazolin-9(8H)-one] | 1.3 to 7.3 µM and 1.3 µM | > 10 µM | 1.3 to 7.3 µM and 2 µM | > 10 µM | – | – |
| O=c1c2c(ccc3nc(Nc4cccnc4)sc32)ncn1C1CC1 [Compound 8g, 8-Cyclopropyl-2-(pyridin-3-ylamino)thiazolo[5,4-f]quinazolin-9(8H)-one] | 1.7 µM | > 10 µM | > 10 µM | > 10 µM | ≥ 10 µM | – |
| N=C(c1nc2ccc3ncn(C4CC4)c(=O)c3c2s1)N1CCOCC1 [Compound 17e, 8-Cyclopropyl-2-[imino(morpholino)methyl]thiazolo[5,4-f]quinazolin-9(8H)-one] | 0.38 µM | 1.9 µM | 0.14 µM | – | 0.23 µM | > 10 µM |
| O=c1c2c(ccc3nc(NCCN4CCCCC4)sc32)ncn1C1CC1 [Compound 14c, 8-Cyclopropyl-2-([2-(piperidin-1-yl)ethyl]amino)thiazolo[5,4-f]quinazolin-9(8H)-one] | > 10 µM | > 10 µM | > 10 µM | – | ≥ 10 µM | > 10 µM |
| O=c1c2cc(Nc3nc4ccccc4s3)ccc2ncn1C1CC1 [Compound 10a, 3-Cyclopropyl-6-[(benzo[d]thiazol-2-yl)amino]quinazolin-4(3H)-one] | 5.2 µM | > 10 µM | 4.8 µM | > 10 µM | ≥ 10 µM | – |
| CN(C)CC/N=C(\N)c1nc2ccc3ncn(C4CC4)c(=O)c3c2s1 [Compound 17b, (Z)-8-Cyclopropyl-N′-[2-(dimethylamino)ethyl]-9-oxo-8,9-dihydrothiazolo[5,4-f]quinazoline-2-carboximidamide] | 0.29 µM | > 10 µM | 4.4 µM | > 10 µM | 1.1 µM | – |
| O=c1c2c(ccc3nc(N4CCCCC4)sc32)ncn1C1CC1 [Compound 14e, 8-Cyclopropyl-2-(piperidin-1-yl)thiazolo[5,4-f]quinazolin-9(8H)-one] | 5.3 µM | > 10 µM | > 10 µM | > 10 µM | ≥ 10 µM | – |
| N/C(=N\CCN1CCCCC1)c1nc2ccc3ncn(C4CC4)c(=O)c3c2s1 [Compound 17d, (Z)-8-Cyclopropyl-9-oxo-N′-[2-(piperidin-1-yl)ethyl]-8,9-dihydrothiazolo[5,4-f]quinazoline-2-carboximidamide] | 2.1 µM | > 10 µM | 2.9 µM | > 10 µM | 3.9 µM | – |
| N=C(NCc1ccccc1)c1nc2ccc3ncn(C4CC4)c(=O)c3c2s1 [Compound 17a, N-Benzyl-8-cyclopropyl-9-oxo-8,9-dihydrothiazolo[5,4-f]quinazoline-2-carboximidamide] | 1 µM | > 10 µM | 0.67 µM | > 10 µM | 0.4 µM | – |
| COc1ccc2c(c1)[nH]c1c(C)nccc12 [Harmine, reference compound] | – | 1.5 µM | – | – | > 10 µM | – |
